Source: patent publication US20200055848A1, “FURANONE DERIVATES AND METHODS OF USE THEREOF” (CARNA BIOSCIENCES, INC., priority 2016, published 2020)
Where a name gives a salt, the structure may show the parent alone.

What was measured:
[1] = target: T1, human Cdc7/human ASK complex protein (Homo sapiens, UniProt O00311); experiment: Cdc7/ASK enzymatic assay; format: biochemical; conditions: 5 μM ATP; for Cdc7 inhibitory potency (in words): compared with compound 3; for IC50: mean of duplicated assays, read-out: Cdc7 IC50
T1 construct: purchased Carna Biosciences, Inc
T1 sequence (O00311 whole entry): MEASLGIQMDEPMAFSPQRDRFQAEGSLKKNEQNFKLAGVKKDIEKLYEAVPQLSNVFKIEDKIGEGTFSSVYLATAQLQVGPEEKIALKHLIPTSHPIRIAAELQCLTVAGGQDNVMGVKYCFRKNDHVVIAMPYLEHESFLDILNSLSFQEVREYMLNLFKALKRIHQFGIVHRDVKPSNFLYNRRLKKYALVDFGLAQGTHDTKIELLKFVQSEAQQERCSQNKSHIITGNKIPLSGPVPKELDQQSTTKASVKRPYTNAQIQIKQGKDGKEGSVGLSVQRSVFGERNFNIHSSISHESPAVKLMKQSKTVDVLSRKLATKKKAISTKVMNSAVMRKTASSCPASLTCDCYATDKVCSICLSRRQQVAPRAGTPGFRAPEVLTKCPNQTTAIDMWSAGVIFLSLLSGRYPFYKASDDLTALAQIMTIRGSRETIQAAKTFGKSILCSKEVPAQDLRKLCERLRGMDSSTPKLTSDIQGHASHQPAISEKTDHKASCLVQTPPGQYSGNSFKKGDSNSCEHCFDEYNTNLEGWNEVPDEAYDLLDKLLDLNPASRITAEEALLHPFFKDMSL
T1 sequence (Q9UBU7 whole entry partner): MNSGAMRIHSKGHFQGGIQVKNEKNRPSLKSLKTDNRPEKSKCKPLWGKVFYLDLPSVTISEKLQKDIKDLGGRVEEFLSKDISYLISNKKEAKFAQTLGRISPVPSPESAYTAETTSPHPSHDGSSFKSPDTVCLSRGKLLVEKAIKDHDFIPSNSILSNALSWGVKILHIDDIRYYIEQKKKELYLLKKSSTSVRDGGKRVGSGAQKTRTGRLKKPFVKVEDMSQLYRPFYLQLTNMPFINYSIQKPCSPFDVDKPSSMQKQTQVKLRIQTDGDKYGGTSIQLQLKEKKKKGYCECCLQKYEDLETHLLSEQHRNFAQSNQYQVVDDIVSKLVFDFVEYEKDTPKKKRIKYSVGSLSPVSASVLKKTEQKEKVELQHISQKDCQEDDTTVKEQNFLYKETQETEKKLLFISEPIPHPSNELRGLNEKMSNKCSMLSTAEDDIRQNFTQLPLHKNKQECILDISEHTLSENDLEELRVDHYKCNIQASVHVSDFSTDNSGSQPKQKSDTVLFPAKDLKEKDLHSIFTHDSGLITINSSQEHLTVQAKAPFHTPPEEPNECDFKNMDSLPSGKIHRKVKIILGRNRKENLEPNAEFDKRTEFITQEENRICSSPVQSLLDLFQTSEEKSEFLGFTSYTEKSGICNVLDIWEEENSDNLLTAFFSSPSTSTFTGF
Method: Measurement of Cdc7 kinase activity was carried out using MSA assay kit (QuickScout™ Screening Assist Kit, Carna Biosciences, Inc.). Assay buffer (20 mM HEPES, 0.01% Triton X-100™, 2 mM dithiothreitol, pH 7.5) was used to prepare a substrate mixture solution comprising 4 μM of kinase-reaction substrate (FITC-labeled MCM2 peptide), 40 mM MgCl2, and 4 times concentrations of final targeted ATP (5, 100, and 1,000 μM). The enzyme supplied in the kit (human Cdc7/human ASK complex protein) was diluted into the assay buffer to prepare a 7 nM solution (enzyme solution). The compound stock solution was prepared by diluting a 10 mM DMSO solution into the assay buffer (final 4% DMSO). The kinase reaction was performed by mixing of 5 μL of the compound solution, 5 μL of the substrate mixture solution, and 10 μL of the enzyme solution in a 384-well plate. For the pre-incubation assay, the compound solution and the enzyme solution were pre-mixed and incubated at ambient temperature for 30 min before adding into the substrate mixture solution to start enzymatic reaction. After the reaction at 25° C. for 5 hours, 60 μL of the termination buffer (supplied in the kit) was added to stop the reaction. The phosphorylation of substrate was measured using a LabChip EZ Reader II system (Caliper Life Sciences). The percent inhibition (%) by a tested compound was calculated according to the following formula:
Percent inhibition (%)=(1−(C−A)/(B−A))×100
A represents P/(P+S) for a blank well, B represents P/(P+S) for a solvent well, and C represents P/(P+S) for a compound-added well. S: the peak heights of the separated substrate, P: phosphorylated substrate.
The IC50 value of tested compound was calculated by regression analysis of the percent inhibition values versus the (logarithmic) concentration of the tested compound.

[2] = In vitro metabolic stability, human liver microsomes; format: in vitro ADME; conditions: 30 min treatment of human liver microsomes
Method: (§1) NADPH regeneration system (13 mM NADP, 33 mM Glucose-6-phospate, 33 mM MgCl2, and 4 U/mL of Glucose-6-phosphate dehydrogenase) and liver microsomes (1 mg/mL of HLM (BD Gentest, lot 18888) or MLM (BD Gentest, lot 31197)) in 0.1 M phosphate buffer (pH 7.4) were pre-incubated separately at 37° C. for 20 min before mixing with 1:4 ratio. 50 μL of the mixed solution was added to 50 μL of the test compound (2 μM) to initiate the reaction at 37° C. (final conc. 1 μM test compound, 0.4 mg/mL liver microsomes, and 1.3 mM NADPH). After 30 min, the reactions were stopped by adding 300 μL of cold acetonitrile. For 0 min samples, ice-cold acetonitrile (with system suitability standard) was treated before mixing the test compound and microsomes. The sample were vortexed well and then centrifuged at 3500 rpm at 15° C. for 20 min. 110 μL of supernatant was mixed with 110 μL of water and quantitated by LC-MS/MS workstation (Shimazu Corp.).

[3] = In vitro metabolic stability, mouse liver microsomes; format: in vitro ADME; conditions: 30 min treatment of mouse liver microsomes
Method: as §1

SMILES	Cdc7 inhibitory potency (in words) [1]	IC50 [1]	HLM % (remaining % of parent compound) [2]	MLM % (remaining % of parent compound) [3]
NC(=O)C1=C(Nc2ccccc2)O/C(=C\c2c[nH]c3ncccc23)C1=O [Compound 10, 5-((1H-Pyrrolo[2,3-b]pyridin-3-yl)methylene)-4-oxo-2-(phenylamino)-4,5-dihydrofuran-3-carboxamide]	significant decrease in potency	> 10000 nM	–	–
CCOC(=O)C1=C(Nc2ccccc2)OC(=Cc2c[nH]c3ncc(Cl)cc23)C1=O [Compound 5, Ethyl 5-((5-chloro-1H-pyrrolo[2,3-b]pyridin-3-yl)methylene)-4-oxo-2-(phenylamino)-4,5-dihydrofuran-3-carboxylate]	–	44 nM	–	–
CCOC(=O)C1=C(Nc2cccc(Cl)c2)OC(=Cc2c[nH]c3ncccc23)C1=O [Compound 14, Ethyl 5-((1H-pyrrolo[2,3-b]pyridin-3-yl)methylene)-2-((3-chlorophenyl)amino)-4-oxo-4,5-dihydrofuran-3-carboxylate]	–	12 nM	–	–
CCOC(=O)C1=C(NCCc2ccccc2)O/C(=C\c2c[nH]c3ncccc23)C1=O [Compound 33, Ethyl 5-((1H-pyrrolo[2,3-b]pyridin-3-yl)methylene)-4-oxo-2-(phenethylamino)-4,5-dihydrofuran-3-carboxylate hydrochloride]	some decrease in potency	30 nM	–	–
CCOC(=O)C1=C(Nc2cccc(OC)c2)OC(=Cc2c[nH]c3ncccc23)C1=O [Compound 17, Ethyl 5-((1H-pyrrolo[2,3-b]pyridin-3-yl)methylene)-2-((3-methoxyphenyl)amino)-4-oxo-4,5-dihydrofuran-3-carboxylate]	–	29 nM	–	–
CCOC(=O)C1=C(Nc2ccc(Cl)cc2)OC(=Cc2c[nH]c3ncccc23)C1=O [Compound 15, Ethyl 5-((1H-pyrrolo[2,3-b]pyridin-3-yl)methylene)-2-((4-chlorophenyl)amino)-4-oxo-4,5-dihydrofuran-3-carboxylate]	–	6.7 nM	–	–
CCOC(=O)C1=C(Nc2ccc(OC)cc2)OC(=Cc2c[nH]c3ncccc23)C1=O [Compound 18, Ethyl 5-((1H-pyrrolo[2,3-b]pyridin-3-yl)methylene)-2-((4-methoxyphenyl)amino)-4-oxo-4,5-dihydrofuran-3-carboxylate]	–	4.9 nM	33%	5.1%
CCOC(=O)C1=C(Nc2ccc(C)cc2C)OC(=Cc2c[nH]c3ncccc23)C1=O [Compound 24, Ethyl 5-((1H-pyrrolo[2,3-b]pyridin-3-yl)methylene)-2-((2,4-dimethylphenyl)amino)-4-oxo-4,5-dihydrofuran-3-carboxylate]	–	3.9 nM	63%	30%
CCOC(=O)C1=C(Nc2ccc(F)cc2F)OC(=Cc2c[nH]c3ncccc23)C1=O [Compound 23, Ethyl 5-((1H-pyrrolo[2,3-b]pyridin-3-yl)methylene)-2-((2,4-difluorophenyl)amino)-4-oxo-4,5-dihydrofuran-3-carboxylate]	–	2.5 nM	57%	12%
CCOC(=O)C1=C(Nc2ccncc2)OC(=Cc2c[nH]c3ncccc23)C1=O [Compound 27, Ethyl 5-((1H-pyrrolo[2,3-b]pyridin-3-yl)methylene)-4-oxo-2-(pyridin-4-ylamino)-4,5-dihydrofuran-3-carboxylate]	–	3.5 nM	–	–
CCNC(=O)C1=C(Nc2ccccc2)O/C(=C\c2c[nH]c3ncccc23)C1=O [Compound 11, 5-((1H-Pyrrolo[2,3-b]pyridin-3-yl)methylene)-N-ethyl-4-oxo-2-(phenylamino)-4,5-dihydrofuran-3-carboxamide]	significant decrease in potency	–	–	–
CCOC(=O)C1=C(Nc2ccccc2OC)OC(=Cc2c[nH]c3ncccc23)C1=O [Compound 16, Ethyl 5-((1H-pyrrolo[2,3-b]pyridin-3-yl)methylene)-2-((2-methoxyphenyl)amino)-4-oxo-4,5-dihydrofuran-3-carboxylate]	–	12 nM	–	–
CCOC(=O)C1=C(Nc2cncnc2)O/C(=C\c2c[nH]c3ncccc23)C1=O [Compound 28, Ethyl 5-((1H-pyrrolo[2,3-b]pyridin-3-yl)methylene)-4-oxo-2-(pyrimidin-5-ylamino)-4,5-dihydrofuran-3-carboxylate]	–	18 nM	–	–
CCOC(=O)C1=C(Nc2cccnc2)OC(=Cc2c[nH]c3ncccc23)C1=O [Compound 26, Ethyl 5-((1H-pyrrolo[2,3-b]pyridin-3-yl)methylene)-4-oxo-2-(pyridin-3-ylamino)-4,5-dihydrofuran-3-carboxylate]	–	8 nM	–	–
CCOC(=O)C1=C(Nc2ccc(F)cc2)OC(=Cc2c[nH]c3ncccc23)C1=O [Compound 20, Ethyl 5-((1H-pyrrolo[2,3-b]pyridin-3-yl)methylene)-2-((4-fluorophenyl)amino)-4-oxo-4,5-dihydrofuran-3-carboxylate]	–	4.3 nM	52%	25%
CCOC(=O)C1=C(Nc2ccccn2)OC(=Cc2c[nH]c3ncccc23)C1=O [Compound 25, Ethyl 5-((1H-pyrrolo[2,3-b]pyridin-3-yl)methylene)-4-oxo-2-(pyridin-2-ylamino)-4,5-dihydrofuran-3-carboxylate]	–	30 nM	–	–
CCOC(=O)C1=C(Nc2cc[nH]n2)O/C(=C\c2c[nH]c3ncccc23)C1=O [Compound 29, Ethyl 2-((1H-pyrazol-3-yl)amino)-5-((1H-pyrrolo[2,3-b]pyridin-3-yl)methylene)-4-oxo-4,5-dihydrofuran-3-carboxylate]	–	10 nM	–	–
CCOC(=O)C1=C(Nc2ccccc2)OC(=Cc2ccc3c(c2)OCO3)C1=O [Compound 7, Ethyl 5-(benzo[d][1,3]dioxol-5-ylmethylene)-4-oxo-2-(phenylamino)-4,5-dihydrofuran-3-carboxylate]	–	3200 nM	–	–
CCOC(=O)C1=C(Nc2ccc(C)cc2)OC(=Cc2c[nH]c3ncccc23)C1=O [Compound 22, Ethyl 5-((1H-pyrrolo[2,3-b]pyridin-3-yl)methylene)-4-oxo-2-(p-tolylamino)-4,5-dihydrofuran-3-carboxylate]	–	5.9 nM	–	–
CCOC(=O)C1=C(Nc2ccc3ncccc3c2)O/C(=C\c2c[nH]c3ncccc23)C1=O [Compound 30, Ethyl 5-((1H-pyrrolo[2,3-b]pyridin-3-yl)methylene)-4-oxo-2-(quinolin-6-ylamino)-4,5-dihydrofuran-3-carboxylate]	–	36 nM	–	–
CCOC(=O)C1=C(NCc2ccccc2)O/C(=C\c2c[nH]c3ncccc23)C1=O [Compound 32, Ethyl 5-((1H-pyrrolo[2,3-b]pyridin-3-yl)methylene)-2-(benzylamino)-4-oxo-4,5-dihydrofuran-3-carboxylate hydrochloride]	some decrease in potency	23 nM	–	–
O=C(O)C1=C(Nc2ccccc2)O/C(=C\c2c[nH]c3ncccc23)C1=O [Compound 9, 5-((1H-Pyrrolo[2,3-b]pyridin-3-yl)methylene)-4-oxo-2-(phenylamino)-4,5-dihydrofuran-3-carboxylic acid]	–	9.9 nM	–	–
CCOC(=O)C1=C(Nc2ccccc2)OC(=Cc2ccc(O)c(C)c2)C1=O [Compound 6, Ethyl 5-(4-hydroxy-3-methylbenzylidene)-4-oxo-2-(phenylamino)-4,5-dihydrofuran-3-carboxylate]	–	1200 nM	–	–
CCOC(=O)C1=C(Nc2ccccc2)SC(=Cc2c[nH]c3ncccc23)C1=O [Compound 4, Ethyl 5-((1H-pyrrolo[2,3-b]pyridin-3-yl)methylene)-4-oxo-2-(phenylamino)-4,5-dihydrothiophene-3-carboxylate]	retention of some potency	> 10000 nM	–	–
CCOC(=O)C1=C(Nc2ccc3cn[nH]c3c2)OC(=Cc2c[nH]c3ncccc23)C1=O [Compound 31, Ethyl 2-((1H-indazol-6-yl)amino)-5-((1H-pyrrolo[2,3-b]pyridin-3-yl)methylene)-4-oxo-4,5-dihydrofuran-3-carboxylate]	–	4 nM	–	–
